According to patent publication US20060239988A1, “Neuronal regeneration and compound administration methods” (priority 2003, published 2006):

Legend:
[1] = test system: importin-beta; conditions: CHX 10 micrograms/ml, ActD 5 micrograms/ml
Experimental: Electrophoretic gel autoradiography: In order to evaluate whether importin-beta is synthesized in axons, sciatic nerve segments were incubated for 6 hours in Met/Cys-deficient DMEM medium (Gibco-BRL) containing 1 mCi/ml of [35]S-Met/Cys (Amersham Bioscience), with or without 10 micrograms/ml of the translation inhibitor cycloheximide (CHX, Sigma) or 5 micrograms/ml of the transcription inhibitor actinomycin D (ActD, Sigma), followed by extrusion of the axoplasm into nuclear transport buffer. The extruded axoplasm was immunoprecipitated with anti importin-beta antibody, and the immunoprecipitate was resolved via 10% SDS-PAGE. Following electrophoresis, the gel was dried and analyzed via autoradiography using FujiFilm BAS2500.

[2] = test system: vimentin and peripherin; conditions: calpeptin 100 micromolar applied to the nerve by injection
[3] = target: pERK with vimentin (Homo sapiens, UniProt P28482); conditions: EGTA 100 millimolar
Sequence of pERK with vimentin (P28482 2-360): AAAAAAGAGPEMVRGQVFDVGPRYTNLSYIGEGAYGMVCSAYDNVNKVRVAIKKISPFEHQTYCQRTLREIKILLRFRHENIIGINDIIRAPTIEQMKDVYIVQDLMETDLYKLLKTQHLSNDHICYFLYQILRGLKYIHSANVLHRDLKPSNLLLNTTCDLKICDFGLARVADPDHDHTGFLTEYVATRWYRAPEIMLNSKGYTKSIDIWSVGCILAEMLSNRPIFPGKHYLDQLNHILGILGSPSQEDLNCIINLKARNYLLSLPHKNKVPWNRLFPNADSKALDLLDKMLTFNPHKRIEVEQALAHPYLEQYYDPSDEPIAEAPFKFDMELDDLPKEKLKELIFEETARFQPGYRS
Experimental: (§1) Pull-down assays and co-immunoprecipitations: Sciatic nerve axoplasm (500 micrograms) was pre-cleared for 1 hour with 80% protein G-Sepharose (Amersham Bioscience). Following overnight incubation with primary antibody, complexes were incubated on protein-G beads for 2 hours, washed extensively and eluted by boiling in SDS-PAGE sample buffer before loading on gels for Western blot analysis. For co-immunoprecipitation in the presence of competitors, 2 micromolar NLS (SEQ ID NO: 2) or reverse-NLS (SEQ ID NO: 3) peptide was added to the axoplasm for overnight incubation at 4 degrees centigrade. For direct pull-downs, GST-pERK (0.5 microgram) or importin-beta (1 microgram) was equilibrated in PBS or NTB and added to 500 microgram aliquots of axoplasm from different post-lesion times. […] All pull-downs were washed twice with 0.2 molar NaCl in PBS or NTB and twice again with PBS or NTB before elution in SDS-PAGE sample buffer for loading on gels.

[4] = target: importin-beta (Homo sapiens, UniProt Q14974)
Sequence of importin-beta (Homo sapiens, UniProt Q14974) (Q14974 whole entry): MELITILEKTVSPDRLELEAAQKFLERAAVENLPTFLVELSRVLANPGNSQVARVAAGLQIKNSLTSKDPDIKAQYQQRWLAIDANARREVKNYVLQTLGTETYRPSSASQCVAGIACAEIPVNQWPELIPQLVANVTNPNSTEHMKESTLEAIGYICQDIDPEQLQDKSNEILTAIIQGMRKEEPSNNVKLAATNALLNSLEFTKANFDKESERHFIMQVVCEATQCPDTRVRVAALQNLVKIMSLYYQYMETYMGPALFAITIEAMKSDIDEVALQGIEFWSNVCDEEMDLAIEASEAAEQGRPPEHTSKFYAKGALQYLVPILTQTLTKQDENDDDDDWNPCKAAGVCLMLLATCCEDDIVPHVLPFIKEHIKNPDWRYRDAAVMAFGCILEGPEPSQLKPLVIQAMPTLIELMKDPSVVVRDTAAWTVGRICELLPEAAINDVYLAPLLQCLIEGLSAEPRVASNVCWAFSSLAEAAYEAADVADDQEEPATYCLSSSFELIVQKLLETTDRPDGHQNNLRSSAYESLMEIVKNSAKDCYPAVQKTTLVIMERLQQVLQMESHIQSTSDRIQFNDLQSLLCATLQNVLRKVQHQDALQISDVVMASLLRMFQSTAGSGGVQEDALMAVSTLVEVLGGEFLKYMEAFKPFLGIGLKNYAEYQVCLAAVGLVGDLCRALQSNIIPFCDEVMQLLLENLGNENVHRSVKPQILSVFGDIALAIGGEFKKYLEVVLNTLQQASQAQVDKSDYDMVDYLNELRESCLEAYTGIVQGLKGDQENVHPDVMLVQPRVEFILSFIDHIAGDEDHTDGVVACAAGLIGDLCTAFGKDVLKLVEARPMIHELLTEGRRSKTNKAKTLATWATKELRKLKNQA
Sequence of importin-beta (Homo sapiens, UniProt Q14974) (P02544 whole entry partner): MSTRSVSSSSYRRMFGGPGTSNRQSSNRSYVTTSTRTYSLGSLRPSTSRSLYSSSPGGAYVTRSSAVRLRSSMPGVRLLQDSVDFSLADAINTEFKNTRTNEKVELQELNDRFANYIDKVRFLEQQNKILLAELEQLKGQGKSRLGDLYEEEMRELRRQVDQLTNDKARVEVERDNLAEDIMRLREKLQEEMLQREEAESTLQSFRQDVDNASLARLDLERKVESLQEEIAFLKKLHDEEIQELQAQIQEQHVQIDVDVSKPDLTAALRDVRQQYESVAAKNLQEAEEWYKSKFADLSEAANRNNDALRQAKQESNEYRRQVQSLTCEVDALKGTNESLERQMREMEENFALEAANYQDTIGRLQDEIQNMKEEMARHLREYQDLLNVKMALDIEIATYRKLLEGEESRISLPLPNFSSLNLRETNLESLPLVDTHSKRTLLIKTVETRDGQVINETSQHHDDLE
Experimental: GST alone was used as a negative control.
as §1

[5] = target: pERK2 (Homo sapiens, UniProt P28482); conditions: in-vitro, increased at calcium up to 1 millimolar
Sequence of pERK2 (P28482 whole entry): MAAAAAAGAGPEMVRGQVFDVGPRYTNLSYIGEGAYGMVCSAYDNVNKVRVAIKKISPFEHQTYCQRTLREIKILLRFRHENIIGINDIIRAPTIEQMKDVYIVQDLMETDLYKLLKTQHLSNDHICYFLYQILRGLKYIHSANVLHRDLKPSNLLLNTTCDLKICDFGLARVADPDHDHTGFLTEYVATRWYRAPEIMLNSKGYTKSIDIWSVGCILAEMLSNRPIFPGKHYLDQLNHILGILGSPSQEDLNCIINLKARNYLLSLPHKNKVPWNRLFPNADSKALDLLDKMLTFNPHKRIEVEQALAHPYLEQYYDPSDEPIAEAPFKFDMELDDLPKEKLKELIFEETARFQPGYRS
Sequence of pERK2 (P02544 whole entry partner): as the sequence (P02544 whole entry partner) above
Experimental: as §1

[6] = test system: alkaline phosphatase; conditions: identical concentrations of vimentin
Experimental: (§2) Alkaline phosphatase (AP; 2 units; Roche, Mannheim, Germany) or axoplasm from injured nerve (100 micrograms) was then added for an additional 30 minutes. Complexes were purified over Nickel-NTA-Agarose followed by Western blot analysis for pERK. Alkaline phosphatase activity was verified with the synthetic substrate p-nitrophenyl phosphate (pNPP, Catalog # S0942, Sigma) dissolved in 0.1 molar glycine buffer (0.1 molar glycine, 1 millimolar MgCl2, 1 millimolar ZnCl2; pH 10.4) for a stock solution of 1 mg/ml. […] The yellow hydrolysis product was quantified spectrophotometrically at 405 nm.

[7] = target: pERK (Homo sapiens, UniProt P28482)
Sequence of pERK (P28482 whole entry): as the sequence (P28482 whole entry) above
Sequence of pERK (Q14974 whole entry partner): as the sequence (Q14974 whole entry) above
Sequence of pERK (P02544 whole entry partner): as the sequence (P02544 whole entry partner) above
Experimental: as §2

In the case of `C[C@@H]1C[C@@H]([C@H](O)CC2CC(=O)NC(=O)C2)C(=O)[C@@H](C)C1` [CHX, cycloheximide], the “formation of radioactive importin-beta protein” value [1] is reported as “not formed”.

`CCCC[C@@H](C=O)NC(=O)[C@H](CC(C)C)NC(=O)OCc1ccccc1` [calpeptin] was tested, and the “lower molecular mass bands of vimentin and peripherin” value [2] was “disappeared”.

With EGTA the “interaction of GST-pERK with vimentin in axoplasm” value [3] was “blocked”.

actinomycin D [ActD] was tested, and the “formation of radioactive importin-beta protein” value [1] was “merely reduced”.

vimentin was tested, and the “effect of changing calcium concentrations on the vimentin-importin-beta interaction” value [4] was “little or no effect”, the “pull-down with GST-importin-beta” value ([4]; did not precipitate with GST alone) was “readily pulled down” and the “vimentin binding to pERK2” value [5] was “calcium dependent”. For the same compound, the “hydrolysis of p-nitrophenyl phosphate by alkaline phosphatase” value [6] was “no effect”, the “calcium dependence of protection of pERK2 from dephosphorylation” value ([7]; 2 micrograms vimentin, varied calcium) was “calcium dependent manner” and the “protection of pERK2 from the phosphatases” value ([7]; three-fold to six-fold molar ratio to pERK, alkaline phosphatase or axoplasm) was “almost complete protection”.
